Measured values taken from patent US10670605B2, “Cysteine reactive probes and uses thereof” (The Scripps Research Institute, priority 2015, dated 2020).

How the values were obtained:
Assay in all cases: Competitive isoTOP-ABPP in situ (fragment-treated cells)
Type in all cases: cell-based
[1] = molecular target: T1, cysteines in MDA-MB-231 and Ramos cells (Homo sapiens, UniProt Q86W42)
T1 sequence (Q86W42 1-341): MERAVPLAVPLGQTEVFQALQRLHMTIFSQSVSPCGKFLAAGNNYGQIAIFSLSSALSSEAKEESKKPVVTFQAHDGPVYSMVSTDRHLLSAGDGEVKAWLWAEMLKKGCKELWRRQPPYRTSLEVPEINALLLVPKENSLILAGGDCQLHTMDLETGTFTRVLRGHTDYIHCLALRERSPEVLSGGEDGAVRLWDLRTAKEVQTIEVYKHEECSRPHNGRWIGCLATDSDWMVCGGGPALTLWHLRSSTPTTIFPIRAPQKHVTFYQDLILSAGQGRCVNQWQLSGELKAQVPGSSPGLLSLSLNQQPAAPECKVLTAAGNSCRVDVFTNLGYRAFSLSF

[2] = molecular target: cysteines in MDA-MB-231 and Ramos cells (Homo sapiens, UniProt Q9BRF8)
[3] = molecular target: T2, cysteines in MDA-MB-231 and Ramos cells (Homo sapiens, UniProt Q9NX18)
T2 sequence (Q9NX18 30-166): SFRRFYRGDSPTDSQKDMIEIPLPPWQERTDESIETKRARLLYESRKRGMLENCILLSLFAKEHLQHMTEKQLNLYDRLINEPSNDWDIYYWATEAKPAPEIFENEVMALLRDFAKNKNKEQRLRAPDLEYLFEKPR

[4] = molecular target: T3, cysteines in MDA-MB-231 and Ramos cells (Homo sapiens, UniProt Q96RS6)
T3 sequence (Q96RS6 1-583): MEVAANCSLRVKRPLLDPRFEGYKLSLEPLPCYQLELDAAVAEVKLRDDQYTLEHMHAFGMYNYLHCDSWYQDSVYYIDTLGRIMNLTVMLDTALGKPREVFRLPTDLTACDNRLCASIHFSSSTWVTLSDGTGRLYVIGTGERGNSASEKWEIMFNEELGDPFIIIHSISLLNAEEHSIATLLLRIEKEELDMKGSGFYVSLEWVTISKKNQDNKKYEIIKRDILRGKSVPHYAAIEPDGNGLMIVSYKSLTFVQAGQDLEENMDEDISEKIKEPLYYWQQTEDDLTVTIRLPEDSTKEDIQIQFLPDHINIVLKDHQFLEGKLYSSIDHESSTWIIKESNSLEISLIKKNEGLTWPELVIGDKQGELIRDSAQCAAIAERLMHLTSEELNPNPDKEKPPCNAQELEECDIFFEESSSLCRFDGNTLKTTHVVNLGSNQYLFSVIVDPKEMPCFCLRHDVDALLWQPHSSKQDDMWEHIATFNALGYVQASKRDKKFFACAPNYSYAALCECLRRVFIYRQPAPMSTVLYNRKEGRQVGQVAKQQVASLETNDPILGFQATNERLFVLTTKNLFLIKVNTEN

[5] = molecular target: cysteines in MDA-MB-231 and Ramos cells (Homo sapiens, UniProt Q8WWI1)
[6] = molecular target: cysteines in MDA-MB-231 and Ramos cells (Homo sapiens, UniProt Q96EY5)
[7] = molecular target: cysteines in MDA-MB-231 and Ramos cells (Homo sapiens, UniProt O14933); conditions: 200 μM, insitu
[8] = molecular target: T4, cysteines in MDA-MB-231 and Ramos cells (Homo sapiens, UniProt Q8N1F7); conditions: 200 μM, insitu
T4 sequence (Q8N1F7 1-819): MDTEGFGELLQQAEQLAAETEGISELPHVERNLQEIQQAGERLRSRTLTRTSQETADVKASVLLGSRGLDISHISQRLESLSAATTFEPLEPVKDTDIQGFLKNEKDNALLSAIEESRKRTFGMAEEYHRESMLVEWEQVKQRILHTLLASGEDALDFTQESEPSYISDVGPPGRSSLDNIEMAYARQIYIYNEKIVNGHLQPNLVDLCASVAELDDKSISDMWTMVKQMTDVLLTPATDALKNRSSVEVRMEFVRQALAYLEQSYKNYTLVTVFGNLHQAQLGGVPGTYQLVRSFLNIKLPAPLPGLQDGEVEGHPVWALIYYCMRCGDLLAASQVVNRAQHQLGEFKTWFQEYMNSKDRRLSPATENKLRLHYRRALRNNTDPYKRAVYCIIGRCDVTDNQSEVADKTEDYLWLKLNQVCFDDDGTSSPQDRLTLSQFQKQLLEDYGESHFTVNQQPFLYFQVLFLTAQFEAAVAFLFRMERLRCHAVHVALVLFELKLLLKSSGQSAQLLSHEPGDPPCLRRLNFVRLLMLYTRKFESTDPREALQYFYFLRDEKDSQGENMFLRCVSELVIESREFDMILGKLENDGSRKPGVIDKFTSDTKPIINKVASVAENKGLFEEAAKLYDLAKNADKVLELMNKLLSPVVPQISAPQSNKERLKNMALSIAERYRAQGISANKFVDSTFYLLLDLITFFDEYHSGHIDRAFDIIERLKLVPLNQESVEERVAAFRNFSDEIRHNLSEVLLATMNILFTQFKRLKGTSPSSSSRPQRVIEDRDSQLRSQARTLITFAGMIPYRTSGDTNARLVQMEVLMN

[9] = molecular target: T5, cysteines in MDA-MB-231 and Ramos cells (Homo sapiens, UniProt Q9NRW3); conditions: 200 μM, insitu
T5 sequence (Q9NRW3 1-190): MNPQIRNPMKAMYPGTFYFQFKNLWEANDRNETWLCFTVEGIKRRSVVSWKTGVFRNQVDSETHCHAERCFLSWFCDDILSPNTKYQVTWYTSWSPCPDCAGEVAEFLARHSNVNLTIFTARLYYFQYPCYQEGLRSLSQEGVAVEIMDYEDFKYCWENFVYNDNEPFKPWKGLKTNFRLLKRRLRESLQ

[10] = molecular target: cysteines in MDA-MB-231 and Ramos cells (Homo sapiens, UniProt Q9Y6G9); conditions: 200 μM, insitu
[11] = molecular target: cysteines in MDA-MB-231 and Ramos cells (Homo sapiens, UniProt Q96RP9); conditions: 200 μM, insitu
Sequence of cysteines in MDA-MB-231 and Ramos cells (Homo sapiens, UniProt Q96RP9) (Q96RP9 37-751): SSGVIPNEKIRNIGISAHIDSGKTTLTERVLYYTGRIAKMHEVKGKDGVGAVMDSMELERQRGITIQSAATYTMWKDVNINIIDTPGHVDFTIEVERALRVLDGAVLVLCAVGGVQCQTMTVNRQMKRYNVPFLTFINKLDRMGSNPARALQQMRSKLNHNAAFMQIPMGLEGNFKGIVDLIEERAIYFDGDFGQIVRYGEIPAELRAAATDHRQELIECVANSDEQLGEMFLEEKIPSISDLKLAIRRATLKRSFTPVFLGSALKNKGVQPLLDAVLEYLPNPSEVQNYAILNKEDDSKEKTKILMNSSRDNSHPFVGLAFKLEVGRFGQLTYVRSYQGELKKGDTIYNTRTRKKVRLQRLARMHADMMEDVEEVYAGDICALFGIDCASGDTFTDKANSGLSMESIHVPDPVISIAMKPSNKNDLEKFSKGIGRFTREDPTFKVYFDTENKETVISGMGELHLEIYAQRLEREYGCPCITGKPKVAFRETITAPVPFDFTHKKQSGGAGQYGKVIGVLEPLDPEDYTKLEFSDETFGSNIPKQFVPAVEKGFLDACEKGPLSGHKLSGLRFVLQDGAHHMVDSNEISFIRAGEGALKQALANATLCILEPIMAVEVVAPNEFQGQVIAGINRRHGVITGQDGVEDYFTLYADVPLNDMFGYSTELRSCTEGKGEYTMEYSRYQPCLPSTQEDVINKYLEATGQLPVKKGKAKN

Sequence of cysteines in MDA-MB-231 and Ramos cells (Homo sapiens, UniProt Q8WWI1) (Q8WWI1 whole entry): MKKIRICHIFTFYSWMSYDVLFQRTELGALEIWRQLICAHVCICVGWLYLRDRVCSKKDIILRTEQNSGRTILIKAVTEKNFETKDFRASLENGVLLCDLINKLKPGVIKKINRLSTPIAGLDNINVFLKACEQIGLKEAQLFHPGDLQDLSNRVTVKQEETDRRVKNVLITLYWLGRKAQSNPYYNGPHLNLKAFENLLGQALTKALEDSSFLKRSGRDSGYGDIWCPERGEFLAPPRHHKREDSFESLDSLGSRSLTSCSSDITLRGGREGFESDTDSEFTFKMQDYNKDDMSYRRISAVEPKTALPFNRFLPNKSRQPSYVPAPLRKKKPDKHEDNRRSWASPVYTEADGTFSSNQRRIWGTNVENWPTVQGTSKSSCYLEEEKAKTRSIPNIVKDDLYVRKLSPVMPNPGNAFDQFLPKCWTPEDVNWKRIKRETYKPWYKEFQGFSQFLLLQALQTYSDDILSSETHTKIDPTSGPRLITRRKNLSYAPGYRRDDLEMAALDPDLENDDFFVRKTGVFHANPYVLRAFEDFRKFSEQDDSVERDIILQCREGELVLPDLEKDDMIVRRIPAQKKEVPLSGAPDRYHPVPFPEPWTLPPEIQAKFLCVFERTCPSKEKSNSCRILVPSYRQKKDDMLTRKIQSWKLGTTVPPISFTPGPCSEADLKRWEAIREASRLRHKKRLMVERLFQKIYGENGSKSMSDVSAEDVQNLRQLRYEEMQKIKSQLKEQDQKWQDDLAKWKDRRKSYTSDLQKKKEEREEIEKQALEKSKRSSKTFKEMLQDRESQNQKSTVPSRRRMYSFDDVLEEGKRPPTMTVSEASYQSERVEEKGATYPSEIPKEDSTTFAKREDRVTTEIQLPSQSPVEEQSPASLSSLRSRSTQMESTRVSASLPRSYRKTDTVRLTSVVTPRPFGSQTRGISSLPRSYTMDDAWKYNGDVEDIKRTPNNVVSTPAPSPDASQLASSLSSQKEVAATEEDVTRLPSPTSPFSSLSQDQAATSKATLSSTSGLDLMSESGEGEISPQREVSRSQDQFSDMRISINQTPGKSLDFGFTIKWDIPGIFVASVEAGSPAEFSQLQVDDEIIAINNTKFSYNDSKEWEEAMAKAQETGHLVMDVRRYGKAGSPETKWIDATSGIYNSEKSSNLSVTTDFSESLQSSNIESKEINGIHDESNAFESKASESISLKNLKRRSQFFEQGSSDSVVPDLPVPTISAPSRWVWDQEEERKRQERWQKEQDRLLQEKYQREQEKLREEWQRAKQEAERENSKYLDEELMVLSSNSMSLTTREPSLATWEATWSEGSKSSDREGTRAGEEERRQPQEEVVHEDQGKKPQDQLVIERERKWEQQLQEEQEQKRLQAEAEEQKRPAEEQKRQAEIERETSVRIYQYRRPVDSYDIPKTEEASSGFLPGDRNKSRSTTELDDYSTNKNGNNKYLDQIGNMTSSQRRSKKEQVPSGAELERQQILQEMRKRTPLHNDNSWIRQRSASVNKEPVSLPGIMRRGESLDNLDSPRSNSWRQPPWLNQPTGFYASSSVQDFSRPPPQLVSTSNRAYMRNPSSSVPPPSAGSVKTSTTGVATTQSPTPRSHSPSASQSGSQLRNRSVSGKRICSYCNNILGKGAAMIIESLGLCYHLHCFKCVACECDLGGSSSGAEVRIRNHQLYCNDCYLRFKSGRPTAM
Sequence of cysteines in MDA-MB-231 and Ramos cells (Homo sapiens, UniProt O14933) (O14933 whole entry): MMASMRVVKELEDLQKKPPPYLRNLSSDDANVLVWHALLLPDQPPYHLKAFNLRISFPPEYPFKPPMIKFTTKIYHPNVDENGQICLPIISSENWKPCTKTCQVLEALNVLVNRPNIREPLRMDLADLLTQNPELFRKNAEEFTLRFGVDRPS
Sequence of cysteines in MDA-MB-231 and Ramos cells (Homo sapiens, UniProt Q9BRF8) (Q9BRF8 whole entry): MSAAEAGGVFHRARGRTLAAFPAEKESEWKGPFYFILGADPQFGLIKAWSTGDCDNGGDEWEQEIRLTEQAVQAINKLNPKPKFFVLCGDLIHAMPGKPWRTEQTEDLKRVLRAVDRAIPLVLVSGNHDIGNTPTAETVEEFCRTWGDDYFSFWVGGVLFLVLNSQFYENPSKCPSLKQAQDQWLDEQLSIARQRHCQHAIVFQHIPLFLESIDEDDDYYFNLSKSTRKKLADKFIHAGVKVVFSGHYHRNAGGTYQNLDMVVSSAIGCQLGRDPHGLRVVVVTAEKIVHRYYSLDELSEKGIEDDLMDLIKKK
Sequence of cysteines in MDA-MB-231 and Ramos cells (Homo sapiens, UniProt Q9Y6G9) (Q9Y6G9 whole entry): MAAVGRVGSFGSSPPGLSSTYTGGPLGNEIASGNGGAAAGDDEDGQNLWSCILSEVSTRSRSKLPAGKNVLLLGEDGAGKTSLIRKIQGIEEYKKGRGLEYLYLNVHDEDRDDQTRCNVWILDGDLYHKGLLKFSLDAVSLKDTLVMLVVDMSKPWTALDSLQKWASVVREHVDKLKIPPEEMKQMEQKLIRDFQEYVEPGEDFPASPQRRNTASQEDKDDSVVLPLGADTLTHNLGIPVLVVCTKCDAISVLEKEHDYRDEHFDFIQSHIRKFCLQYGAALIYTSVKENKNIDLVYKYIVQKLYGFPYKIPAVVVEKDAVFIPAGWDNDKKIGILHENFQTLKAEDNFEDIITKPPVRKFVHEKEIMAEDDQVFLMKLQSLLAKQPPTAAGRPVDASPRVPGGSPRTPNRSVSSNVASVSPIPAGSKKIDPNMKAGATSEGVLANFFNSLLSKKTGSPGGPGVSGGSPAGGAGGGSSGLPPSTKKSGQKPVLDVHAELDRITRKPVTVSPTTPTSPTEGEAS

## Cn1cc(S(=O)(=O)N2CCOCC2)cc1C(=O)NC(=O)CCl [compound 11]
[1]; 100 μM in situ 231
  isoTOP-ABPP ratio Q86W42_C35: 1.3
[2]; 100 μM in situ 231
  isoTOP-ABPP ratio Q9BRF8_C54: 1.0
[3]; 100 μM in situ 231
  isoTOP-ABPP ratio Q9NX18_C83: 1.1
[4]; 100 μM in situ 231
  isoTOP-ABPP ratio Q96RS6_C376: 0.8
[5]; 100 μM in situ 231
  isoTOP-ABPP ratio Q8WWI1_C228: 1.3
[6]; 100 μM in situ 231
  isoTOP-ABPP ratio, cysteine Q96EY5_C231: 0.7

## C=CC(=O)Nc1cc(F)c(N2CCN(C(=O)OC(C)(C)C)CC2)c(F)c1 [compound 38]
[1]; 200 μM, insitu, 231
  isoTOP-ABPP ratio Q86W42_C35: 0.8
[7]; 231
  isoTOP-ABPP ratio O14933_C98: 1.6
[4]; 200 μM, insitu, 231
  isoTOP-ABPP ratio Q96RS6_C376: 1.3
[8]; 231
  isoTOP-ABPP ratio Q8N1F7_C522: 1.7
[6]; 200 μM, insitu, 231
  isoTOP-ABPP ratio Q96EY5_C231: 1.8

## CC1CCc2ccccc2N1C(=O)CCl (stereo not shown) [compound 45]
[1]; 200 μM, insitu, 231
  isoTOP-ABPP ratio Q86W42_C35: 20.0
[9]; 231
  isoTOP-ABPP ratio Q9NRW3_C130: 20.0
[2]; 200 μM, insitu, 231
  isoTOP-ABPP ratio Q9BRF8_C54: 20.0
[3]; 200 μM, insitu, 231
  isoTOP-ABPP ratio Q9NX18_C83: 3.7
[7]; 231
  isoTOP-ABPP ratio O14933_C98: 20.0
[8]; 231
  isoTOP-ABPP ratio Q8N1F7_C522: 20.0
[5]; 200 μM, insitu, 231
  isoTOP-ABPP ratio Q8WWI1_C228: 20.0

## COc1ccc2c(c1)CCCN2C(=O)CCl [compound 2]
[9]; 231
  isoTOP-ABPP reactivity Q9NRW3_C130 APOBEC3C: 20.0
[3]; 200 μM, insitu, 231
  isoTOP-ABPP reactivity Q9NX18_C83 SDHAF2: 3.1
[6]; 200 μM, insitu, 231
  isoTOP-ABPP reactivity Q96EY5_C231 FAM125A: 4.1

## COc1cc2c(cc1OC)CN(C(=O)CCl)CC2 [compound 8]
[10]; 231
  isoTOP-ABPP reactivity Q9Y6G9_C51 DYNC1LI1: 4.1
[8]; 231
  isoTOP-ABPP reactivity Q8N1F7_0522 NUP93: 20.0

## CC(C)CCOCCNC(=O)CCl [compound 27]
[10]; 231
  isoTOP-ABPP ratio Q9Y6G9_C51: 0.6
[1]; 200 μM, insitu, 231
  isoTOP-ABPP ratio Q86W42_C35: 1.3
[9]; 231
  isoTOP-ABPP ratio Q9NRW3_C130: 1.3
[11]; 231
  isoTOP-ABPP ratio Q96RP9_C153: 1.6
[3]; 200 μM, insitu, 231
  isoTOP-ABPP ratio Q9NX18_C83: 1.5
[5]; 200 μM, insitu, 231
  isoTOP-ABPP ratio Q8WWI1_C228: 0.8
[6]; 200 μM, insitu, 231
  isoTOP-ABPP ratio Q96EY5_C231: 0.6

## O=C(CCl)N1CCN(S(=O)(=O)c2ccccc2F)CC1 [compound 10]
[10]; 231
  isoTOP-ABPP ratio Q9Y6G9_C51: 4.9
[11]; 231
  isoTOP-ABPP ratio, cysteine Q96RP9_C153: 14.8
[2]; 200 μM, insitu, 231
  isoTOP-ABPP ratio Q9BRF8_C54: 3.8
[3]; 200 μM, insitu, 231
  isoTOP-ABPP ratio Q9NX18_C83: 4.4
[7]; 231
  isoTOP-ABPP ratio, cysteine O14933_C98: 20.0
[7]; ramos
  isoTOP-ABPP ratio, cysteine O14933_C98: 3.2
[4]; 200 μM, insitu, 231
  isoTOP-ABPP ratio Q96RS6_C376: 5.7
[5]; 200 μM, insitu, 231
  isoTOP-ABPP ratio Q8WWI1_C228: 17.2

## O=C(CCl)N1CCN(CC(=O)N2CCOCC2)CC1 [compound 29]
[9]; ramos
  isoTOP-ABPP ratio Q9NRW3_C130: 13.3
[11]; ramos
  isoTOP-ABPP ratio Q96RP9_C153: 1.2
[2]; 200 μM, insitu, ramos
  isoTOP-ABPP ratio Q9BRF8_C54: 1.5
[3]; 200 μM, insitu, ramos
  isoTOP-ABPP ratio Q9NX18_C83: 1.9
[7]; ramos
  isoTOP-ABPP ratio O14933_C98: 2.4
[4]; 200 μM, insitu, ramos
  isoTOP-ABPP ratio Q96RS6_C376: 1.3
[8]; ramos
  isoTOP-ABPP ratio Q8N1F7_C522: 1.7
[5]; 200 μM, insitu, ramos
  isoTOP-ABPP ratio Q8WWI1_C228: 1.0
[6]; 200 μM, insitu, ramos
  isoTOP-ABPP ratio Q96EY5_C231: 1.1

## C=CC(=O)N(Cc1cccnc1)c1cc(C(F)(F)F)cc(C(F)(F)F)c1 [compound 31]
[10]; ramos
  isoTOP-ABPP ratio Q9Y6G9_C51: 1.6
[1]; 200 μM, insitu, 231
  isoTOP-ABPP ratio Q86W42_C35: 0.5
[7]; ramos
  isoTOP-ABPP ratio O14933_C98: 1.9
[4]; 200 μM, insitu, 231
  isoTOP-ABPP ratio Q96RS6_C376: 0.8
[8]; ramos
  isoTOP-ABPP ratio Q8N1F7_C522: 3.6
